Assay results from PubChem BioAssay (NCI).
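1) Cells in 96-well plates. 2) Compound, 48 h, 5 concentrations. 3) Linear interpolation between surrounding doses. 4) Unreached endpoint = highest concentration. GI50: concentration for 50% inhibition of growth. TGI: concentration producing complete growth inhibition.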

Experiments:
Test in all cases: inhibition of tumour cell growth, NCI panel, 48 h
SK-MEL-28 melanoma = test system: SK-MEL-28 melanoma
NCI-H460 lung = test system: NCI-H460 lung
RXF 393 renal = test system: RXF 393 renal
CAKI-1 renal = test system: CAKI-1 renal
KM12 colon = test system: KM12 colon
NCI-H23 lung = test system: NCI-H23 lung
SK-MEL-2 melanoma = test system: SK-MEL-2 melanoma
SNB-19 CNS = test system: SNB-19 CNS
HOP-62 NSCLC = test system: HOP-62 NSCLC
M14 melanoma = test system: M14 melanoma
EKVX NSCLC = test system: EKVX NSCLC
SW-620 colon = test system: SW-620 colon
A549 NSCLC = test system: A549 NSCLC

Row | SMILES | TGI (SK-MEL-28 melanoma) [µM] | TGI (NCI-H460 lung) [µM] | TGI (RXF 393 renal) [µM] | TGI (CAKI-1 renal) [µM] | TGI (KM12 colon) [µM] | TGI (NCI-H23 lung) [µM] | TGI (SK-MEL-2 melanoma) [µM] | TGI (SNB-19 CNS) [µM] | TGI (HOP-62 NSCLC) [µM] | TGI (M14 melanoma) [µM] | TGI (EKVX NSCLC) [µM] | TGI (SW-620 colon) [µM] | TGI (A549 NSCLC) [µM] | GI50 (SK-MEL-28 melanoma) [µM] | GI50 (NCI-H460 lung) [µM] | GI50 (EKVX NSCLC) [µM] | GI50 (SW-620 colon) [µM] | GI50 (NCI-H23 lung) [µM] | GI50 (A549 NSCLC) [µM] | GI50 (M14 melanoma) [µM]
1 | CO/C(=N/N1CC1C(F)(F)F)c1ccncc1 (stereo not drawn) | > 100 | > 100 | > 100 | > 100 | > 100 | > 100 | > 100 | > 100 | > 100 | > 100 |  |  |  |  |  |  |  |  |  | 
2 | CCCCOC(=O)CN1C(=O)c2ccccc2C1=O | > 100 | > 100 | > 100 | > 100 | > 100 | > 100 | > 100 | > 100 | > 100 | > 100 | > 100 | > 100 | > 100 |  |  |  |  |  |  | 
3 | O=C(CCl)N1CCCCC1C1(c2cc3ccccc3[nH]2)OCCO1 (stereo not drawn) | 35.6 | > 34.5 | 12.8 | 1.86 | 8.48 | 8.47 | 20.2 | 31.5 | 20.6 | 13.6 | 5.74 | 58.9 | 23.3 |  |  |  |  |  |  | 
4 | CN(C)CCOc1cc2c(c3ccccc13)-c1ccccc1C2=O | 3.27 | 2.34 | 5.3 | 6.31 | 3.03 | 5.24 | 3.44 | 8.39 | 3.95 |  | 18.5 | 3.87 | 22 |  |  |  |  |  |  | 
5 | C#CCCCC(=C)C[C@H](OCc1ccccc1)[C@H]1OC(=O)[C@@H]1C | > 100 | > 100 | > 100 | 46.5 | > 100 | > 100 | > 100 | > 100 | > 100 | > 100 | > 100 | > 100 | > 100 |  |  |  |  |  |  | 
6 | Cc1nc(Nc2nnc(-c3cc([N+](=O)[O-])cc([N+](=O)[O-])c3C)o2)sc1C(=O)CC(=O)Cc1nc2ccc(Cl)cc2[nH]c1=O | > 100 | > 100 | > 100 | > 100 | > 100 | > 100 | > 100 | > 100 | > 100 | > 100 | > 100 | > 100 | > 100 |  |  |  |  |  |  | 
7 | COC(=O)c1cccc(NC(=O)Nc2ccc3oc(=O)c4ccccc4c3c2)c1 | > 100 | > 100 |  |  |  | > 100 |  |  |  | > 100 | > 100 | > 100 | > 100 | > 100 | > 100 | > 100 | > 100 | > 100 | > 100 | > 100
